The values that follow come from US8178506B2, “Oligomeric compounds and compositions for use in modulation of small non-coding RNAs” (Regulus Therapeutics Inc., priority 2003, dated 2012).

In the oligonucleotide strings, read from the 5' end, every base follows the letter of its sugar. An asterisk marks phosphorothioate; unmarked linkages are phosphodiester. Other units and linkages are bracketed, terminal groups are in braces. A string of capitals states the bases alone. e = 2'-O-(2-methoxyethyl) (MOE); [5mC] = 5-methylcytosine

This data set relates to mir-143 binding sites. Kind of data set: pGL3-mir-143 sensor luciferase assay in HeLa cells. Type of data set: cell-based, human. Particulars: for Relative luciferase activity / luciferase expression (% lucif. only control): HeLa cells; for Relative luciferase activity: pGL3-mir-143 sensor with pCR3-pri-mir-143 (430); for luciferase expression (% lucif. only control): pGL3-mir-143 sensor. From the text: In one embodiment, an expression system based on the pGL3-Control (Promega Corp., Madison Wis.) vector containing a CMV promoter controlling expression of a luciferase reporter sequence was used in transient transfections of HeLa cells with plasmids expressing miRNA or pri-miRNA mimics. To assess the ability of miRNA mimics to bind and regulate the expression of the luciferase reporter gene, two reporter plasmids were constructed: 1) a synthetic DNA fragment comprising two sites perfectly complementary to mir-143 were inserted into the pGL3-Control luciferase reporter vector, to create the pGL3-mir-143 sensor plasmid, and 2) a DNA fragment comprising the 3′-UTR of the LIM domain only 4 (LMO4) gene (predicted to be regulated by mir-143) was inserted into pGL3-Control to create pGL3-LMO4; this fragment was PCR-amplified using a primer beginning at position 1261 of the LMO4 sequence (GenBank Accession NM_006769.2, incorporated herein as SEQ ID: 809) and the downstream primer hybridizing to the poly-A tail. In each of these plasmids, the target site was placed downstream of the luciferase coding sequence and upstream of the polyadenylation signal in the 3′-UTR of the luciferase reporter vector. The unmodified pGL3-Control luciferase reporter vector was used as a control.
HeLa cells were routinely cultured and passaged as described, and on the day before transfection with expression or reporter plasmids, the HeLa cells were seeded onto 24-well plates 50,000 cells/well. Cells were transfected according to standard published procedures with various combinations of plasmids using 2 μg Lipofectamine™ 2000 Reagent (Invitrogen) per μg of plasmid DNA, or, when transfecting oligomeric compounds, 1.25 μg of Lipofectamine™ 2000 Reagent per 100 nM oligonucleotide or double-stranded RNA. The luciferase signal in each well was normalized to the Renilla luciferase (RL) activity produced from a co-transfected plasmid, pRL-CMV, which was transfected at 0.5 μg per well. Cells were treated at various dosages (4 nM, 20 nM, and 100 nM) with the following oligomeric compound mimics: 1) “ds-mir-143,” 2) “ds-Control,” 3) “pCR3-pri-mir-143,” or 4) “pri-mir-control,” as described supra. In accordance with methods described in Example 12, supra, a luciferase assay was performed 48-hours after transfection. Briefly, cells were lysed in passive lysis buffer (PLB; Promega), and 20 ul of the lysate was then assayed for RL activity using a Dual Luciferase Assay kit (Promega) according to the manufacturer's protocol. The results below are an average of three trials and are presented as percent pGL3-Control luciferase expression normalized to pRL-CMV expression (RL).
In another embodiment, HeLa cells were transfected with 0.03 μg pGL3-mir-143 sensor plasmid and 0.01 μg pRL-CMV plasmid, and, in addition, (except those samples described below as “without mir-143 pri-miRNA,”) were also transfected with 0.01 μg of an expression plasmid designed to express a mir-143 pri-miRNA mimic comprising a larger 430-nt fragment of the mir-143 primary miRNA transcript, referred to as “pCR3-pri-mir-143 (430)” ([…]; SEQ ID NO: 871). […] To further evaluate the ability of the mir-143 pri-miRNA mimic to inhibit luciferase activity from the sensor plasmid, and to assess the ability of oligomeric compounds to interfere with the inhibition of pGL3-mir-143 sensor luciferase expression by the mir-143 pri-miRNA mimic, pGL3-mir-143 sensor-expressing HeLa cells treated with pCR3-pri-mir-143 (430) were additionally treated with varying concentrations (0-, 6.7- or 20 nM) of the following oligomeric compounds: 1) ISIS Number 327901 (SEQ ID NO: 319), a uniform 2′-MOE oligomeric compound targeting mir-143; 2) ISIS Number 342673 (SEQ ID NO: 758), a uniform 2′-MOE scrambled control; or 3) ISIS Number 327924 (SEQ ID NO: 342) targeting an unrelated miRNA (mir-129-2). […]

As for “327924 (antisense eG*e[5mC]*eA*eA*eG*e[5mC]*e[5mC]*e[5mC]*eA*eG*eA*e[5mC]*e[5mC]*eG*e[5mC]*eA*eA*eA*eA*eA*eG) [compound 327924]”, the Relative luciferase activity was determined as 0.8 (6.7 nM) and 1.2 (20 nM).
For “ds-mir-143: double-stranded RNA of ISIS 342199 hybridized to its perfect complement ISIS 342200 (sense UGAGAUGAAGCACUGUAGCUCA; antisense UGAGCUACAGUGCUUCAUCUCA; RNA, backbone not given here)”, the “luciferase activity from the pGL3-mir-143 sensor plasmid” value (HeLa, 4 nM, 20 nM and 100 nM, 48 hours) is “inhibited luciferase activity from the pGL3-mir-143 sensor plasmid in a dose-dependent manner”. For the same substance, the “luciferase expression (% lucif. only control)” value is, setting by setting: (4 nM, 48 hours) 14.5 % lucif. only control; (20 nM, 48 hours) 8.0 % lucif. only control; (100 nM, 48 hours) 7.1 % lucif. only control.
